Reference: PubChem BioAssay AID449727 (Sanford-Burnham Center for Chemical Genomics, 2010)

molecular target: Tyrosine-protein phosphatase non-receptor type 22 (Homo sapiens) (UniProt Q9Y2R2); assay: LYP (PTPN22) phosphatase inhibitor potency, SAR follow-up, biochemical, pCAP fluorogenic substrate, fluorescence, set 3 (AID 449727); details: recombinant LYP
Sequence (Q9Y2R2 whole entry, looked up): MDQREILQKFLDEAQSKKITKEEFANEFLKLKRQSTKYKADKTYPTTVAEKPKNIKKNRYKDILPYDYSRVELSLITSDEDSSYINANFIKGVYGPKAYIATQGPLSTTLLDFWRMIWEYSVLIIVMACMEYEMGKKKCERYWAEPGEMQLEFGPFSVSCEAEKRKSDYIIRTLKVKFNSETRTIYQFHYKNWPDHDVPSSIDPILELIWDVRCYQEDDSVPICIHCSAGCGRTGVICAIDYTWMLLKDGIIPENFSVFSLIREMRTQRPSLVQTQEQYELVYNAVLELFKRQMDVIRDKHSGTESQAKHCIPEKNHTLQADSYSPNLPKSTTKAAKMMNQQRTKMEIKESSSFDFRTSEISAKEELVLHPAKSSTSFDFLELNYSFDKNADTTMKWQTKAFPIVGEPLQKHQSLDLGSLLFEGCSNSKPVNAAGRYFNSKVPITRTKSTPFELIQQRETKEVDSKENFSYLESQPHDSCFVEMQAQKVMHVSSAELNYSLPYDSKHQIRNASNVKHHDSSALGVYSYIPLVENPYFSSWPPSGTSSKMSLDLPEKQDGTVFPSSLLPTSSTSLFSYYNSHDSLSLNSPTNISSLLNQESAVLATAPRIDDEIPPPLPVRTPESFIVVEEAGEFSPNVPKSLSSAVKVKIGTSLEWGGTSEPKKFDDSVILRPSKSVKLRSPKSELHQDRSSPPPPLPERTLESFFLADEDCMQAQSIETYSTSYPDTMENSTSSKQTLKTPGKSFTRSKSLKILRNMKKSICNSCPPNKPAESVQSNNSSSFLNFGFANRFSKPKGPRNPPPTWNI

| IC50 [µM] | SMILES |
| --- | --- |
| 6.36 | N#C/C(=C\c1ccc(OCc2ccc(Cl)cc2)cc1)C(=O)Nc1cccc(C(=O)O)c1 |
| 76 | CCc1ccc(/C=C2\SC(=S)N(CCCC(=O)Nc3ccc(C(=O)O)cc3)C2=O)cc1 |
| 30.6 | CCOC(=O)C1=C(C)N=c2s/c(=C/c3cc(Cl)c(OCC(=O)O)c(OC)c3)c(=O)n2C1c1ccccc1Cl (stereo unspecified) |
| 3.96 | O=C(O)CCCN1C(=O)/C(=C/c2ccc(-c3nc4ccccc4s3)o2)SC1=S |
| 47 | Cc1c(Cl)cccc1NS(=O)(=O)c1ccc2c(c1)C1C=CCC1C(c1ccc(C(=O)O)cc1)N2 (stereo unspecified) |
| 2.94 | COc1ccc(/C=C2\SC(=S)N(CCC(=O)Nc3ccc(C(=O)O)cc3)C2=O)cc1OC |
